From ChEMBL document CHEMBL4673225, “Highly Selective PTK2 Proteolysis Targeting Chimeras to Probe Focal Adhesion Kinase Scaffolding Functions” (J Med Chem, 2019) come the findings set out here.

The structures appear in SMILES notation. Active and inactive are the calls of the source. The calls are words filed in the database; no cut-off is given here.

Experiment [1] deals with von Hippel-Lindau disease tumor suppressor/Focal adhesion kinase 1 (Homo sapiens, UniProt Q05397+P40337). The experiment is described as follows: Protac activity at VHL/PTK2 in human A549 cells assessed as induction of PTK2 degradation at 1 to 100000 nM incubated for 18 hrs by protein capillary electrophoresis method. Particulars: dose 1-100000 nM. Type of experiment: cell-based.
Chain of von Hippel-Lindau disease tumor suppressor/Focal adhesion kinase 1 (P40337 whole entry partner): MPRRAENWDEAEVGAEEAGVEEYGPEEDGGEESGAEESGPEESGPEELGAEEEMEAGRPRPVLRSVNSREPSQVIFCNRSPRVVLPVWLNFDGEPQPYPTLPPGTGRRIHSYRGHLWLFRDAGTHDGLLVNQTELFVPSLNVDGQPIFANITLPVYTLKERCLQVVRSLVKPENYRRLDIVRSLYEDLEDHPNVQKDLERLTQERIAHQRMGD
Chain of von Hippel-Lindau disease tumor suppressor/Focal adhesion kinase 1 (Q05397 2-1052 limits assumed): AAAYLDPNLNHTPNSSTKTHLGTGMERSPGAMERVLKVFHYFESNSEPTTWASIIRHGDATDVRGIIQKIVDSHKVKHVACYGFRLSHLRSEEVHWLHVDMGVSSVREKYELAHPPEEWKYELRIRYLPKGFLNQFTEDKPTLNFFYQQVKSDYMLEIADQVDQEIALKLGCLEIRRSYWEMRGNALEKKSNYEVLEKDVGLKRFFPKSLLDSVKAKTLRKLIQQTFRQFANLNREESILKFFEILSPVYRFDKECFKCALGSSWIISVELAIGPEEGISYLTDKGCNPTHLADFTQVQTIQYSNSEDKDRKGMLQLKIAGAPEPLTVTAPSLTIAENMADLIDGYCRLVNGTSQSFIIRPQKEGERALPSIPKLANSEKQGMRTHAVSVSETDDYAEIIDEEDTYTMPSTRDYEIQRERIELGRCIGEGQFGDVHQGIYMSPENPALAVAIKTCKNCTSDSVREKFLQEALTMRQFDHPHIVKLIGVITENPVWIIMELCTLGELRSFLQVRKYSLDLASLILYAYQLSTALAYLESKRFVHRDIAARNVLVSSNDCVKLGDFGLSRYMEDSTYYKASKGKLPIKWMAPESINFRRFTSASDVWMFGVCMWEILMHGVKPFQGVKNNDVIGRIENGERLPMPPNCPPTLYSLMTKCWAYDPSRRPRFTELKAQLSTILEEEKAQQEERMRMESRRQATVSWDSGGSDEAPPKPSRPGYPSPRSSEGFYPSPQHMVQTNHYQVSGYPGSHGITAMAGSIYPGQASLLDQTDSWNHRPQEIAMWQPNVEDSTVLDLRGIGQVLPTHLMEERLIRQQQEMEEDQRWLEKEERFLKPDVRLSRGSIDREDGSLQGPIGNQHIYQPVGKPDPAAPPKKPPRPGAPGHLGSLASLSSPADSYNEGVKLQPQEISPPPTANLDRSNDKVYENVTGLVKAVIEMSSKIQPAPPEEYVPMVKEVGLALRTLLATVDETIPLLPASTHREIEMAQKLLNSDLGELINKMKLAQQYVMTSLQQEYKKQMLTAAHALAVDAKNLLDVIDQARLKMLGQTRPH

The subject of a further experiment is SK-HEP1. The experiment is described as follows: cells. Particulars: Homo sapiens, SK-HEP1, 144 h, read-out: pIC50 (converted).
The test system of the next experiment is HepG2. The experiment is described as follows: cells. Particulars: Homo sapiens, HepG2, 144 h, read-out: pIC50 (converted).
The test system of a further experiment is SNU-423. Nature of the experiment: cells. The following applies: Homo sapiens, SNU-423, 144 h, read-out: pIC50 (converted).
The test system of a further experiment is SNU-387. Nature of the experiment: cells. Particulars: Homo sapiens, SNU-387, 144 h, read-out: pIC50 (converted).
The test system of another experiment is SNU-398. Nature of the experiment: cells. The following applies: Homo sapiens, SNU-398, 144 h, read-out: pIC50 (converted).
Experiment [2] can be described thus: cells. The following applies: Homo sapiens, HuH-1, 144 h, read-out: pIC50 (converted).
Description: Antiproliferative activity against human HuH-1 cells incubated for 6 days by CellTiter-Glo luminescent cell viability assay
Experiment [3] in a line: cells. Particulars: Homo sapiens, Hep3B, 144 h, read-out: pIC50 (converted).
Description: Antiproliferative activity against human Hep3B2.1-7 cells incubated for 6 days by CellTiter-Glo luminescent cell viability assay
Experiment [4] is described as follows: cells. Particulars: Homo sapiens, HLF1, 144 h, read-out: pIC50 (converted).
Description: Antiproliferative activity against human HLF1 cells incubated for 6 days by CellTiter-Glo luminescent cell viability assay
Another experiment deals with HuCCT-1. Nature of the experiment: cells. The following applies: Homo sapiens, HuCCT-1, 144 h, read-out: pIC50 (converted).
The test system of a further experiment is Huh-7. Nature of the experiment: cells. The following applies: Homo sapiens, Huh-7, 144 h, read-out: pIC50 (converted).
A further experiment relates to HLE. The experiment is described as follows: cells. The following applies: Homo sapiens, 144 h, read-out: pIC50 (converted).

Description for HLE: Antiproliferative activity against human HLE cells incubated for 6 days by CellTiter-Glo luminescent cell viability assay
Description for HepG2: Antiproliferative activity against human HepG2 cells incubated for 6 days by CellTiter-Glo luminescent cell viability assay
Description for HuCCT-1: Antiproliferative activity against human HuCCT-1 cells incubated for 6 days by CellTiter-Glo luminescent cell viability assay
Description for Huh-7: Antiproliferative activity against human Huh-7 cells incubated for 6 days by CellTiter-Glo luminescent cell viability assay
Description for SK-HEP1: Antiproliferative activity against human SK-HEP1 cells incubated for 6 days by CellTiter-Glo luminescent cell viability assay
Description for SNU-387: Antiproliferative activity against human SNU-387 cells incubated for 6 days by CellTiter-Glo luminescent cell viability assay
Description for SNU-398: Antiproliferative activity against human SNU-398 cells incubated for 6 days by CellTiter-Glo luminescent cell viability assay
Description for SNU-423: Antiproliferative activity against human SNU-423 cells incubated for 6 days by CellTiter-Glo luminescent cell viability assay

Take `COc1cc(C(=O)NCCOCCOCCOCC(=O)N[C@H](C(=O)N2C[C@@H](O)C[C@H]2C(=O)NCc2ccc(-c3scnc3C)cc2)C(C)(C)C)ccc1Nc1ncc(C(F)(F)F)c(Oc2cccc3c2C(=O)CC3)n1`: the result in experiment [1] was inactive.
In the case of `COc1cc(C(=O)NC2CCN(C)CC2)ccc1Nc1ncc(C(F)(F)F)c(Oc2cccc3c2C(=O)CC3)n1`, the IC50 was 6.31 µM in the experiment with SK-HEP1; 3.16 µM with HepG2; 3.98 µM in the experiment with SNU-423; 6.31 µM in the experiment on SNU-387; 6.31 µM in the experiment with SNU-398; 3.98 µM in the experiment “cells [2]”. Besides, the IC50 in the experiment “cells [3]” is 5.01 µM; in the experiment “cells [4]”, 3.98 µM; in the experiment on HuCCT-1, 6.31 µM; with Huh-7, 3.98 µM; in the experiment with HLE, 7.94 µM.
